Patent publication US9573956B2, “Compounds as dual inhibitors of phosphodiesterases and histone deacetylases” (FUNDACIÓN PARA LA INVESTIGACIÓN MÉDICA APLICADA, priority 2013, dated 2017)
Like-named read-outs stand apart in the source and are kept apart here.

Assays:
Format in all cases: biochemical
HDAC2 = target: T1, HDAC2 (Homo sapiens, UniProt Q92769); experiment: HDAC enzyme activity assay (fluorogenic substrate), HDAC2
T1 construct: NM_001527; Cat. #50002) is full-length with C-terminal his tag; His (C); purchased BPS Biosciences 50002; host or cells: baculovirus infected Sf9 cells

HDAC1 = HDAC1 (Homo sapiens, UniProt Q13547); experiment: HDAC enzyme activity assay (fluorogenic substrate), HDAC1
PDE5A = target: T2, PDE5A (Homo sapiens, UniProt O76074); experiment: PDE enzyme activity assay (HTRF cGMP), PDE5A; conditions: recombinant enzyme; read-out: PDE5A1 inhibition (IC50)
T2 construct: they are full-length with N-terminal GST tag; GST (N); purchased BPS Biosciences 60050; host or cells: baculovirus infected Sf9 cells

HDAC6 = target: T3, HDAC6 (Homo sapiens, UniProt Q9UBN7); experiment: HDAC enzyme activity assay (fluorogenic substrate), HDAC6
T3 construct: BC069243; Cat. #50006) is full-length with N-terminal GST tag; GST (N); purchased BPS Biosciences 50006; host or cells: baculovirus infected Sf9 cells
T3 sequence (Q9UBN7 1-1215): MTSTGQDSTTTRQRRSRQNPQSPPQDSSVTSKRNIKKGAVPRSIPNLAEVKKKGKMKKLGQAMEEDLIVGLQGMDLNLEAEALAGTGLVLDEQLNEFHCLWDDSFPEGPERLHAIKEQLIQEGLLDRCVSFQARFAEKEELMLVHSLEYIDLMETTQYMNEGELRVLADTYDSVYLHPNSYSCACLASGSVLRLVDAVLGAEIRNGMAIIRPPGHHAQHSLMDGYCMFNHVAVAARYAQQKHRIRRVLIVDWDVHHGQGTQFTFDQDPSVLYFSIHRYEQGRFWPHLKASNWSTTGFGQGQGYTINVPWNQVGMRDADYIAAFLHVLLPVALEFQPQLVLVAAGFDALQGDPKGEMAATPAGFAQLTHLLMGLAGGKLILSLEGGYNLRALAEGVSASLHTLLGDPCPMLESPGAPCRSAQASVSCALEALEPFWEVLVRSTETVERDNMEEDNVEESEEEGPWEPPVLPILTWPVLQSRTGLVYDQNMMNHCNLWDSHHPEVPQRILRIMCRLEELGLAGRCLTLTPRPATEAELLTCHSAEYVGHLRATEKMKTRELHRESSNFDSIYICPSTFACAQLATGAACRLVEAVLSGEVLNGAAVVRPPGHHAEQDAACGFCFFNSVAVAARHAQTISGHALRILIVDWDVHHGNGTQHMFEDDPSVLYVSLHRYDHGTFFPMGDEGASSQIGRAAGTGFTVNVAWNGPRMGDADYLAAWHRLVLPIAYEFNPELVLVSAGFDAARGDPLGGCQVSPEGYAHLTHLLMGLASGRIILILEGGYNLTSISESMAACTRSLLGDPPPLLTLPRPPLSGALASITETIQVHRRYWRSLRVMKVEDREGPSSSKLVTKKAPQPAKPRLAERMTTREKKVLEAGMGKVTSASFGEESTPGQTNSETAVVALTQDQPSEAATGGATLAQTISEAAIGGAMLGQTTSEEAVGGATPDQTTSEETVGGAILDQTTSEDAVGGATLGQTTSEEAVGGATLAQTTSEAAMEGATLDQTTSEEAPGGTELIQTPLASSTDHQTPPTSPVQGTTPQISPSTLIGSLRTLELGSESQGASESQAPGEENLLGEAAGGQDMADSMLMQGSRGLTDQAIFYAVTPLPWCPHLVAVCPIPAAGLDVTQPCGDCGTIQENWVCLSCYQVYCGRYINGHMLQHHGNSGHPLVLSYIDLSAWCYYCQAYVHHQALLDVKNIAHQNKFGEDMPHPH

[1] = recombinant enzyme, read-out: HDAC2 inhibition (IC50)
[2] = recombinant enzyme, read-out: HDAC1 inhibition (IC50)
[3] = comparative examples, inactive, read-out: HDAC6 IC50
[4] = comparative examples, inactive, read-out: HDAC2 IC50
[5] = comparative examples, inactive, read-out: HDAC1 IC50
[6] = recombinant enzyme, read-out: HDAC6 inhibition (IC50)

Sequence of HDAC1 (Q13547 whole entry): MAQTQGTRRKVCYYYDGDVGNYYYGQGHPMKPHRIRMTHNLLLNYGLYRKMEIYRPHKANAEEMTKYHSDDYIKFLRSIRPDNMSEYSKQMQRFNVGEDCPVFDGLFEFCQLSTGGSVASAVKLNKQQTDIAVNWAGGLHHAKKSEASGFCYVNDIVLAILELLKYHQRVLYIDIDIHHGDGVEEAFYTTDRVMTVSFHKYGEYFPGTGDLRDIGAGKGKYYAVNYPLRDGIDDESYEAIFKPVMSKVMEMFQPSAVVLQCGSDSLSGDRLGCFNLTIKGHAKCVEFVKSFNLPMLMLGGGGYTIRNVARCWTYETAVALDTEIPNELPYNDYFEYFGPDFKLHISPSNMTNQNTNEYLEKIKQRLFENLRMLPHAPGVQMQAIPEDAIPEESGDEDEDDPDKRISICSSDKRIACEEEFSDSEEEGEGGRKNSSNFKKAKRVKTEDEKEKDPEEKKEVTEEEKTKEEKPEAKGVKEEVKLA
T1 sequence (Q92769 whole entry): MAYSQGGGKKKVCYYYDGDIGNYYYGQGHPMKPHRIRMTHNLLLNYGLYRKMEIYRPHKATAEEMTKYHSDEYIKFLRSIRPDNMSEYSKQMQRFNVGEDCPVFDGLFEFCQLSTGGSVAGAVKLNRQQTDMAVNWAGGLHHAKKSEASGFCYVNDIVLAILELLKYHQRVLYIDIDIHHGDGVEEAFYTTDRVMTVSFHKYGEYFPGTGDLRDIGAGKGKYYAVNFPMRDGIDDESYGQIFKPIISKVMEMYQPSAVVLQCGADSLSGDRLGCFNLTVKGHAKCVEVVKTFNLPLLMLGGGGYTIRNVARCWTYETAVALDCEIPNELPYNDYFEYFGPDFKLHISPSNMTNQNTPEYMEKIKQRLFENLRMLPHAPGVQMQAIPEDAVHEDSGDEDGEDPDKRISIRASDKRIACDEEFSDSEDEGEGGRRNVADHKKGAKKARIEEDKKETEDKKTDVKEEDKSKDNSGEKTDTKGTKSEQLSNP

Compound | IC50 (HDAC2; [1]) [nM] | IC50 (HDAC1; [2]) [nM] | IC50 (PDE5A) [nM] | IC50 (HDAC6; [6]) [nM] | IC50 (HDAC6; [3]) [nM] | IC50 (HDAC2; [4]) [nM] | IC50 (HDAC1; [5]) [nM]
CCCc1nn(C)c2c(=O)[nH]c(-c3cc(S(=O)(=O)N4CCN(Cc5ccc(/C=C/C(=O)NO)cc5)CC4)ccc3OCC)nc12 [Example 1-02] | 1000 to 10000 | 10 to 1000 | < 10 |  |  |  | 
(1R,2R)-2-(1-(4,4-difluorocyclohexyl)-3a,4,5,7a-tetrahydro-4-oxo-1H-pyrazolo[3,4-d]pyrimidin-6-yl)-N-methoxy-N-methylcyclobutanecarboxamide [Comparative Example 3-01, reference compound] |  |  |  |  | > 20000 | > 20000 | > 20000
CCCc1nn(C)c2c(=O)[nH]c(-c3cc(-c4ccc(CC(=O)NO)cc4)ccc3OCC)nc12 [Example 1-34] | > 10000 | > 10000 | 10 to 1000 | 10 to 1000 |  |  | 
CCCc1nn(C)c2c(=O)[nH]c(-c3cc(N4CCC(CCC(=O)NO)CC4)ccc3OCC)nc12 [Example 1-54] | 1000 to 10000 | 10 to 1000 | 10 to 1000 | 1000 to 10000 |  |  | 
CCCc1nn(C)c2c(=O)[nH]c(-c3cc(Cc4ccc(C(=O)NO)c(F)c4)ccc3OCC)nc12 [Example 1-66] | > 10000 | 1000 to 10000 | 10 to 1000 | 10 to 1000 |  |  | 
CCCc1nn(C)c2c(=O)[nH]c(-c3cc(NC4CCN(c5ccc(C(=O)NO)cc5)CC4)ccc3OCC)nc12 [Example 1-47] |  | 1000 to 10000 | 10 to 1000 | 1000 to 10000 |  |  | 
CCCc1nc(C)c2c(=O)[nH]c(-c3cc(S(=O)(=O)N(C)CC(=O)N(C)OC)ccc3OCC)nn12 [Comparative Example 2-01, 2-[[4-ethoxy-3-(5-methyl-4-oxo-7-propyl-3H-imidazo[5,1-f][1,2,4]triazin-2-yl)phenyl]sulfonyl-methyl-amino]-N-methoxy-N-methyl-acetamide, reference compound] |  |  |  |  | > 20000 | > 20000 | > 20000
CCCc1nn(C)c2c(=O)[nH]c(-c3cc(S(=O)(=O)N4CCN(CCCC(=O)NO)CC4)ccc3OCC)nc12 [Example 1-05] | 1000 to 10000 | 1000 to 10000 | < 10 |  |  |  | 
CCCc1nn(C)c2c(=O)[nH]c(-c3cc(-c4ccc(C(=O)NO)cn4)ccc3OCC)nc12 [Example 1-72] |  |  | < 10 | 10 to 1000 |  |  | 
CCCc1nn(C)c2c(=O)[nH]c(-c3cccc(OC4CCN(c5ncc(C(=O)NO)cn5)CC4)c3)nc12 [Example 1-14] |  | 10 to 1000 | 1000 to 10000 | 10 to 1000 |  |  | 
CCCc1nn(C)c2c(=O)[nH]c(-c3cc(S(=O)(=O)N4CCC(CCC(=O)NO)CC4)ccc3OCC)nc12 [Example 1-01] | > 10000 | > 10000 | 10 to 1000 |  |  |  | 
CCCc1nn(C)c2c(=O)[nH]c(-c3cc(S(=O)(=O)N4CCN(CCC(=O)NO)CC4)ccc3OCC)nc12 [Example 1-04, 3-(4-[3-(6,7-Dihydro-1-methyl-7-oxo-3-propyl-1H-pyrazolo[4,3-d]pyrimidin-5-yl)-4-ethoxyphenylsulfonyl]piperazin-1-yl)-N-hydroxypropanamide] | > 10000 | 1000 to 10000 | < 10 |  |  |  | 
CCCc1nn(C)c2c(=O)[nH]c(-c3cc(-c4ccc(C(=O)NO)s4)ccc3OCC)nc12 [Example 1-71] |  |  | < 10 | 10 to 1000 |  |  | 
CCCc1nn(C)c2c(=O)[nH]c(-c3cc(-c4ccc(C(=O)NO)nc4)ccc3OCC)nc12 [Example 1-73] |  |  | < 10 | 10 to 1000 |  |  | 
CCCc1nn(C)c2c(=O)[nH]c(-c3cc(CC4CCN(CC(=O)NO)CC4)ccc3OCC)nc12 [Example 1-32] | > 10000 |  | < 10 | 1000 to 10000 |  |  | 

Continued, in another order:

IC50 (HDAC2; [1]) [nM] | IC50 (HDAC1; [2]) [nM] | IC50 (PDE5A) [nM] | IC50 (HDAC6; [6]) [nM] | Compound | IC50 (HDAC6; [3]) [nM] | IC50 (HDAC2; [4]) [nM] | IC50 (HDAC1; [5]) [nM]
 |  | < 10 | 1000 to 10000 | CCCc1nc(C)c2c(=O)[nH]c(-c3cc(C4CCC(C(=O)NO)CC4)ccc3OCC)nn12 (racemic) [Example 2-12, 4-[4-ethoxy-3-(5-methyl-4-oxo-7-propyl-3H-imidazo[5,1-f][1,2,4]triazin-2-yl)phenyl]cyclohexanecarbohydroxamic acid] |  |  | 
 |  | < 10 | 10 to 1000 | CCCc1nn(C)c2c(=O)[nH]c(-c3cc(C(=O)c4ccc(C(=O)NO)s4)ccc3OCC)nc12 [Example 1-79, 5-[4-ethoxy-3-(1-methyl-7-oxo-3-propyl-6H-pyrazolo[4,3-d]pyrimidin-5-yl)benzoyl]thiophene-2-carbohydroxamic acid] |  |  | 
 |  | 10 to 1000 | 10 to 1000 | CCCc1nn(C)c2c(=O)[nH]c(-c3cc(CC4CCC(C(=O)NO)C4)ccc3OCC)nc12 (racemic) [Example 1-80, 3-[[4-ethoxy-3-(1-methyl-7-oxo-3-propyl-6H-pyrazolo[4,3-d]pyrimidin-5-yl)phenyl]methyl]cyclopentanecarbohydroxamic acid] |  |  | 
 |  | < 10 | 10 to 1000 | CCCc1nc(C)c2c(=O)[nH]c(-c3cc(C4CCC(C(=O)NO)CC4)ccc3OCC)nn12 (centres unmarked) [Example 2-13, 4-[4-ethoxy-3-(5-methyl-4-oxo-7-propyl-3H-imidazo[5,1-f][1,2,4]triazin-2-yl)phenyl]cyclohexanecarbohydroxamic acid] |  |  | 
 |  | 10 to 1000 | 10 to 1000 | CCCc1nn(C)c2c(=O)[nH]c(-c3cc(C4CC(C(=O)NO)C4)ccc3OCC)nc12 (racemic) [Example 1-82, 3-[4-ethoxy-3-(1-methyl-7-oxo-3-propyl-6H-pyrazolo[4,3-d]pyrimidin-5-yl)phenyl]cyclobutanecarbohydroxamic acid] |  |  | 
 |  | < 10 | 1000 to 10000 | CCCc1nn(C)c2c(=O)[nH]c(-c3cc(-c4ccc(C(=O)NO)o4)ccc3OCC)nc12 [Example 1-74] |  |  | 
 |  | 10 to 1000 | 10 to 1000 | CCCc1nn(C)c2c(=O)[nH]c(-c3cc(CC4CCC(C(=O)NO)C4)ccc3OCC)nc12 (centres unmarked) [Example 1-83, 3-[[4-ethoxy-3-(1-methyl-7-oxo-3-propyl-6H-pyrazolo[4,3-d]pyrimidin-5-yl)phenyl]methyl]cyclopentanecarbohydroxamic acid] |  |  | 
 |  | 10 to 1000 | 10 to 1000 | CCCc1nn(C)c2c(=O)[nH]c(-c3cc(CC4CCC(C(=O)NO)CC4)ccc3OCC)nc12 (racemic) [Example 1-76, 4-[[4-ethoxy-3-(1-methyl-7-oxo-3-propyl-6H-pyrazolo[4,3-d]pyrimidin-5-yl)phenyl]methyl]cyclohexanecarbohydroxamic acid] |  |  | 
 |  | < 10 | 10 to 1000 | CCCc1nc(C)c2c(=O)[nH]c(-c3cc(-c4ccc(C(=O)NO)cc4)ccc3OCC)nn12 [Example 2-11] |  |  | 
 |  | 10 to 1000 | 10 to 1000 | CCCc1nn(C)c2c(=O)[nH]c(-c3cc(C(OC)c4ccc(C(=O)NO)cc4)ccc3OCC)nc12 (centres unmarked) [Example 1-77, 4-[[4-ethoxy-3-(1-methyl-7-oxo-3-propyl-6H-pyrazolo[4,3-d]pyrimidin-5-yl)phenyl]-methoxy-methyl]benzenecarbohydroxamic acid] |  |  | 
 |  | 10 to 1000 | 1000 to 10000 | CCCc1nn(C)c2c(=O)[nH]c(-c3cc(C4CCC(C(=O)NO)CC4)ccc3OCC)nc12 (racemic) [Example 1-75, 4-[4-ethoxy-3-(1-methyl-7-oxo-3-propyl-6H-pyrazolo[4,3-d]pyrimidin-5-yl)phenyl]cyclohexanecarbohydroxamic acid] |  |  | 
 |  | < 10 | 10 to 1000 | CCCc1nn(C)c2c(=O)[nH]c(-c3cc(C(O)c4ccc(C(=O)NO)cc4)ccc3OCC)nc12 (centres unmarked) [Example 1-78, 4-[[4-ethoxy-3-(1-methyl-7-oxo-3-propyl-6H-pyrazolo[4,3-d]pyrimidin-5-yl)phenyl]-hydroxy-methyl]benzenecarbohydroxamic acid] |  |  | 
 |  | < 10 | 10 to 1000 | CCCc1nc(C)c2c(=O)[nH]c(-c3cc(Cc4ccc(C(=O)NO)s4)ccc3OCC)nn12 [Example 2-10] |  |  | 
